Experimental data published in US20240400586A1, “HETEROARYL DERIVATIVE PARP INHIBITOR AND USE THEREOF” (HAISCO PHARMACEUTICAL GROUP CO., LTD., priority 2021, published 2024).

Columns and labels:
PARP-1 enzyme = PARP-1 enzyme (Homo sapiens (Human), UniProt P09874); experiment: PARP1 enzyme activity test (BPS Bioscience chemiluminescence kit); assay type: biochemical
From the text: Inhibition %=(1−(RLUsample−RLUmin)/(RLUmax−RLUmin))×100% (formula 1)

[1] = test system: breast tumor cells MDA-MB-436; experiment: MDA-MB-436 cell activity test (CellTiter-Glo, 7 days); assay type: cell-based; settings: Homo sapiens, MDA-MB-436, 168 h, 7 days incubation; for inhibition at 10 µM: read-out: MDA-MB-436 Max inh. % 10 μM; for IC50: read-out: MDA-MB-436 cell inhibitory activity IC50
Experimental: Breast tumor cells MDA-MB-436 were purchased from ATCC, the culture medium was Leibovitz's L-15+10% FBS, and the cells were cultured in a CO2-free incubator at 37° C. On day 1, the cells in the exponential growth phase were collected, and the cell suspension was adjusted to 4000 cells/135 μL with the culture medium. 135 μL of the cell suspension was added to each well of a 96-well cell culture plate and incubated overnight. On day 2, compounds at different concentrations were added, and the plate was placed in the incubator and incubated for 7 days. After the incubation was completed, according to operation instructions for a CellTiter-Glo kit (Promega, G7573), 75 μL of CTG solution, which was already pre-melted and equilibrated to room temperature, was added to each well, and the mixture was uniformly mixed for 2 min using a microplate shaker. The plate was placed at room temperature for 10 min, and then […] were measured using an Envision2104 plate reader (PerkinElmer). The inhibition rate was calculated using formula (1), where RLUcompound was the readout of the drug treated group, RLUcontrol was the average value of the vehicle control group, and RLUblank was the average value of the cell-free well. The IC50 value was calculated using GraphPad Prism software.

Chain of PARP-1 enzyme (P09874 whole entry): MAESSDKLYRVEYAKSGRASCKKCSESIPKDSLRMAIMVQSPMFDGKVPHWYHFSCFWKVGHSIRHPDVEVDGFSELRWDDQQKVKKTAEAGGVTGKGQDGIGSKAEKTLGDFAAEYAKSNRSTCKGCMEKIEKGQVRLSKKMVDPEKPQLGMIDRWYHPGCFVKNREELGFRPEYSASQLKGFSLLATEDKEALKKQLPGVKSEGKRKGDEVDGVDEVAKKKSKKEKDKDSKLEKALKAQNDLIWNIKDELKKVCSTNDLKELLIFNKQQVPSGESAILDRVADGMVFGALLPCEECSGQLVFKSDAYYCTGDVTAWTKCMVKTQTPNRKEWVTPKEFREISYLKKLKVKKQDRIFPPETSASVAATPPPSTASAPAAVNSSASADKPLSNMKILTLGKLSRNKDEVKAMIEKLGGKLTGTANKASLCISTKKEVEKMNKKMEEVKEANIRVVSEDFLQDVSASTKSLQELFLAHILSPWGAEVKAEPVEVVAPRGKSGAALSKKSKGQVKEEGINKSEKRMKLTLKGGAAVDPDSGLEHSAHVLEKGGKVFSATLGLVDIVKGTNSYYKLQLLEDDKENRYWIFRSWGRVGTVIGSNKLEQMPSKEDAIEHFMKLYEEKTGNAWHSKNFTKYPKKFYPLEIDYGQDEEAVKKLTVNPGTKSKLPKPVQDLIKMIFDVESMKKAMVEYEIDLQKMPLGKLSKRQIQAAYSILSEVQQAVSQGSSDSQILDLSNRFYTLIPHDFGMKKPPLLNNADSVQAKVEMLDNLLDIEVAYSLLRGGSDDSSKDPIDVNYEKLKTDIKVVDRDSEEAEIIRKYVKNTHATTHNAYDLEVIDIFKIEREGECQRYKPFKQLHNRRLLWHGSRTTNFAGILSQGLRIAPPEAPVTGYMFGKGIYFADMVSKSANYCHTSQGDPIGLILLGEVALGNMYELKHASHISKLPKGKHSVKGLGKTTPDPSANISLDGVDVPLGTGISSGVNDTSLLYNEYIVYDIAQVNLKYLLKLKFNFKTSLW

Structure (SMILES): CCc1cc2ncc(CN3CCN(c4ccc(NC(=O)[C@@H]5CC5(F)F)nc4)CC3)cc2[nH]c1=O (single isomer, unassigned) [Compound 50]
- IC50 (PARP-1 enzyme): 0.69 nM
- inhibition at 10 µM [1]: 92.9%
- IC50 [1]: 3 nM

Structure (SMILES): CCc1cc2ncc(CN3CCN(c4ccc(NC(=O)[C@H]5CC5(F)F)nc4)CC3)cc2[nH]c1=O (single isomer, unassigned) [Compound 51]
- IC50 (PARP-1 enzyme): 0.66 nM
- inhibition at 10 µM [1]: 95.6%
- IC50 [1]: 8.5 nM

Structure (SMILES): CCc1cc2ncc(CN3CCN(c4ccc5c(c4)CN(C)C5=O)CC3)cc2[nH]c1=O [Compound 1, 3-ethyl-7-((4-(2-methyl-1-oxoisoindolin-5-yl)piperazin-1-yl)methyl)-1,5-naphthyridin-2 (1H)-one]
- IC50 (PARP-1 enzyme): 3.66 nM

Structure (SMILES): CCc1cc2ncc(CN3CCN(c4cnc(C(=O)NC)cn4)CC3)cc2[nH]c1=O [Compound 2, 5-(4-((7-ethyl-6-oxo-5,6-dihydro-1,5-naphthyridin-3-yl)methyl)piperazin-1-yl)-N-methylpyrazine-2-carboxamide]
- IC50 (PARP-1 enzyme): 2.01 nM

Structure (SMILES): CCc1cc2ncc(CN3CCN(c4ccc(-c5nnc(C)o5)nc4)CC3)cc2[nH]c1=O [Compound 3, 3-ethyl-7-((4-(6-(5-methyl-1,3,4-oxadiazol-2-yl)pyridin-3-yl)piperazin-1-yl)methyl)-1,5-naphthyridin-2 (1H)-one]
- IC50 (PARP-1 enzyme): 1.33 nM

Structure (SMILES): CCc1cc2ncc(CN3CCN(c4cnc(C(=O)NC)c(F)c4)CC3)cc2[nH]c1=O [Compound 6, 5-(4-((7-ethyl-6-oxo-5,6-dihydro-1,5-naphthyridin-3-yl)methyl)piperazin-1-yl)-3-fluoro-N-methylpicolinamide]
- IC50 (PARP-1 enzyme): 0.56 nM
- inhibition at 10 µM [1]: 85.7%
- IC50 [1]: 10 nM

Structure (SMILES): CCc1cc2ncc(CN3CCN(c4ccc(NC(C)=O)nc4)CC3)cc2[nH]c1=O [Compound 7, N-(5-(4-((7-ethyl-6-oxo-5,6-dihydro-1,5-naphthyridin-3-yl)methyl)piperazin-1-yl)pyridin-2-yl)acetamide]
- IC50 (PARP-1 enzyme): 0.32 nM

Structure (SMILES): CCc1cc2ncc(CN3CCN(c4ccc(NC(=O)OC)nc4)CC3)cc2[nH]c1=O [Compound 8, methyl(5-(4-((7-ethyl-6-oxo-5,6-dihydro-1,5-naphthyridin-3-yl)methyl)piperazin-1-yl)pyridin-2-yl)carbamate]
- IC50 (PARP-1 enzyme): 0.58 nM

Structure (SMILES): CCc1cc2ncc(CN3CCN(c4cnc(C(=O)NC)cc4F)CC3)cc2[nH]c1=O [Compound 12, 5-(4-((7-ethyl-6-oxo-5,6-dihydro-1,5-naphthyridin-3-yl)methyl)piperazin-1-yl)-4-fluoro-N-methylpicolinamide]
- IC50 (PARP-1 enzyme): 1.6 nM

Structure (SMILES): CCc1cc2ncc(CN3CCN(c4cnc(C(=O)NC5CC5)cc4F)CC3)cc2[nH]c1=O [Compound 13, N-cyclopropyl-5-(4-((7-ethyl-6-oxo-5,6-dihydro-1,5-naphthyridin-3-yl)methyl)piperazin-1-yl)-4-fluoropicolinamide]
- IC50 (PARP-1 enzyme): 0.76 nM

Structure (SMILES): CCc1cc2ncc(CN3CCN(c4ccc(NC(=O)NC)nc4)CC3)cc2[nH]c1=O [Compound 14, 1-(5-(4-((7-ethyl-6-oxo-5,6-dihydro-1,5-naphthyridin-3-yl)methyl)piperazin-1-yl)pyridin-2-yl)-3-methylurea]
- IC50 (PARP-1 enzyme): 0.71 nM

Structure (SMILES): CCc1cc2ncc(CN3CCN(c4cn5cc(C)nc5cn4)CC3)cc2[nH]c1=O [Compound 15, 3-ethyl-7-((4-(2-methylimidazo[1,2-a]pyrazin-6-yl)piperazin-1-yl)methyl)-1,5-naphthyridin-2 (1H)-one]
- IC50 (PARP-1 enzyme): 0.65 nM

Structure (SMILES): CCc1cc2ncc(CN3CCN(c4ccc(C(=O)NC5CCNCC5)nc4)CC3)cc2[nH]c1=O [Compound 16, 5-(4-((7-ethyl-6-oxo-5,6-dihydro-1,5-naphthyridin-3-yl)methyl)piperazin-1-yl)-N-(piperidin-4-yl)picolinamide]
- IC50 (PARP-1 enzyme): 0.51 nM

Structure (SMILES): CCc1cc2ncc(CN3CCN(c4ccc(C(=O)NC5CCN(C)CC5)nc4)CC3)cc2[nH]c1=O [Compound 17, 5-(4-((7-ethyl-6-oxo-5,6-dihydro-1,5-naphthyridin-3-yl)methyl)piperazin-1-yl)-N-(1-methylpiperidin-4-yl)picolinamide]
- IC50 (PARP-1 enzyme): 0.35 nM

Structure (SMILES): CCc1cc2ncc(CN3CCN(c4ccc(C(=O)N[C@@H]5CCNC5)nc4)CC3)cc2[nH]c1=O [Compound 18, (R)-5-(4-((7-ethyl-6-oxo-5,6-dihydro-1,5-naphthyridin-3-yl)methyl)piperazin-1-yl)-N-(pyrrolidin-3-yl)picolinamide]
- IC50 (PARP-1 enzyme): 0.33 nM

Structure (SMILES): CCc1cc2ncc(CN3CCN(c4ccc(C(=O)N[C@H]5CCNC5)nc4)CC3)cc2[nH]c1=O [Compound 20, (S)-5-(4-((7-ethyl-6-oxo-5,6-dihydro-1,5-naphthyridin-3-yl)methyl)piperazin-1-yl)-N-(pyrrolidin-3-yl)picolinamide]
- IC50 (PARP-1 enzyme): 0.32 nM

Structure (SMILES): CCc1cc2ncc(CN3CCN(c4ccc5nc(C)cn5n4)CC3)cc2[nH]c1=O [Compound 27, 3-ethyl-7-((4-(2-methylimidazo[1,2-b]pyridazin-6-yl)piperazin-1-yl)methyl)-1,5-naphthyridin-2 (1H)-one]
- IC50 (PARP-1 enzyme): 0.75 nM

Structure (SMILES): CCc1cc2ncc(CN3CCN(c4ccc(-c5cnn[nH]5)nc4)CC3)cc2[nH]c1=O [Compound 29, 7-((4-(6-(1H-1,2,3-triazol-5-yl)pyridin-3-yl)piperazin-1-yl)methyl)-3-ethyl-1,5-naphthyridin-2 (1H)-one]
- IC50 (PARP-1 enzyme): 0.45 nM

Structure (SMILES): CCc1cc2ncc(CN3CCN(c4ccc(-c5ccn[nH]5)nc4)CC3)cc2[nH]c1=O [Compound 30, 7-((4-(6-(1H-pyrazol-5-yl)pyridin-3-yl)piperazin-1-yl)methyl)-3-ethyl-1,5-naphthyridin-2 (1H)-one]
- IC50 (PARP-1 enzyme): 0.45 nM

Structure (SMILES): CCc1cc2ncc(CN3CCN(c4ccc5nc(C)nn5c4)CC3)cc2[nH]c1=O [Compound 31, 3-ethyl-7-((4-(2-methyl-[1,2,4]triazolo[1,5-a]pyridin-6-yl)piperazin-1-yl)methyl)-1,5-naphthyridin-2 (1H)-one]
- IC50 (PARP-1 enzyme): 1.7 nM

Structure (SMILES): CCc1cc2ncc(CN3CCN(c4ccc(Nc5ccn(C)n5)nc4)CC3)cc2[nH]c1=O [Compound 32, 3-ethyl-7-((4-(6-((1-methyl-1H-pyrazol-3-yl)amino)pyridin-3-yl)piperazin-1-yl)methyl)-1,5-naphthyridin-2 (1H)-one]
- IC50 (PARP-1 enzyme): 2 nM

Structure (SMILES): CCc1cc2ncc(CN3CCN(c4ccc(NC(=O)[C@H]5C[C@H]5F)nc4)CC3)cc2[nH]c1=O [Compound 34, (1R,2R)—N-(5-(4-((7-ethyl-6-oxo-5,6-dihydro-1,5-naphthyridin-3-yl)methyl)piperazin-1-yl)pyridin-2-yl)-2-fluorocyclopropane-1-carboxamide]
- inhibition at 10 µM [1]: 81.9%
- IC50 [1]: 16.5 nM

Structure (SMILES): CCc1cc2ncc(CN3CCN(c4ccc(NC(=O)[C@@H]5C[C@H]5F)nc4)CC3)cc2[nH]c1=O [Compound 35, (1S,2R)—N-(5-(4-((7-ethyl-6-oxo-5,6-dihydro-1,5-naphthyridin-3-yl)methyl)piperazin-1-yl)pyridin-2-yl)-2-fluorocyclopropane-1-carboxamide]
- inhibition at 10 µM [1]: 90.4%
- IC50 [1]: 9.8 nM

Structure (SMILES): CCc1cc2ncc(CN3CCN(c4ccc(NC(=O)[C@H]5CCN(C)C5)nc4)CC3)cc2[nH]c1=O [Compound 36, (S)—N-(5-(4-((7-ethyl-6-oxo-5,6-dihydro-1,5-naphthyridin-3-yl)methyl)piperazin-1-yl)pyridin-2-yl)-1-methylpyrrolidine-3-carboxamide]
- IC50 (PARP-1 enzyme): 0.58 nM

Structure (SMILES): CCc1cc2ncc(CN3CCN(c4cn5cc(C(F)(F)F)nc5cn4)CC3)cc2[nH]c1=O [Compound 43, 3-ethyl-7-((4-(2-(trifluoromethyl)imidazo[1,2-a]pyrazin-6-yl)piperazin-1-yl)methyl)-1,5-naphthyridin-2 (1H)-one]
- IC50 (PARP-1 enzyme): 0.93 nM

Structure (SMILES): CCc1cn2cc(N3CCN(Cc4cnc5cc(CC)c(=O)[nH]c5c4)CC3)ncc2n1 [Compound 44, 3-ethyl-7-((4-(2-ethylimidazo[1,2-a]pyrazin-6-yl)piperazin-1-yl)methyl)-1,5-naphthyridin-2 (1H)-one]
- IC50 (PARP-1 enzyme): 0.92 nM

Structure (SMILES): CCc1cc2ncc(CN3CCN(c4cn5cc(C(F)F)nc5cn4)CC3)cc2[nH]c1=O [Compound 45]
- IC50 (PARP-1 enzyme): 0.73 nM

Structure (SMILES): CCc1cc2ncc(CN3CCN(c4ccc(C(=O)NC5CN(c6ccccc6)C5)nc4)CC3)cc2[nH]c1=O [Compound 46, 5-(4-((7-ethyl-6-oxo-5,6-dihydro-1,5-naphthyridin-3-yl)methyl)piperazin-1-yl)-N-(1-phenylazetidin-3-yl)picolinamide]
- IC50 (PARP-1 enzyme): 0.56 nM

Structure (SMILES): CCc1cc2ncc(CN3CCN(c4ccc(C(=O)Nc5ccn(C)n5)nc4)CC3)cc2[nH]c1=O [Compound 48, 5-(4-((7-ethyl-6-oxo-5,6-dihydro-1,5-naphthyridin-3-yl)methyl)piperazin-1-yl)-N-(1-methyl-1H-pyrazol-3-yl)picolinamide]
- IC50 (PARP-1 enzyme): 0.35 nM

Structure (SMILES): CCc1cc2ncc(CN3CCN(c4ccc(C(=O)NCCOC5CC5(F)F)nc4)CC3)cc2[nH]c1=O (centres unmarked) [Compound 52, N-(2-(2,2-difluorocyclopropoxy)ethyl)-5-(4-((7-ethyl-6-oxo-5,6-dihydro-1,5-naphthyridin-3-yl)methyl)piperazin-1-yl)picolinamide]
- inhibition at 10 µM [1]: 92.4%
- IC50 [1]: 3.1 nM

Structure (SMILES): CCc1cc2ncc(CN3CCN(c4ccc(C(=O)NCCOC5CC5)nc4)CC3)cc2[nH]c1=O [Compound 53, N-(2-cyclopropoxyethyl)-5-(4-((7-ethyl-6-oxo-5,6-dihydro-1,5-naphthyridin-3-yl)methyl)piperazin-1-yl)picolinamide]
- inhibition at 10 µM [1]: 90.6%
- IC50 [1]: 2.2 nM
